From patent US20220177511A1, “SERIES OF HALOGENATED TETRACYCLIC TRITERPENE DERIVATIVES AND THEIR PREPARATION AND APPLICATION” (SHANGHAI KING-X BIOTECH CO., LTD, priority 2019, published 2022) come the findings set out here.

The nature of this data set: Solubility test in water and FaSSIF. In kind it is physicochemical. To be noted: 37° C., up to 24 hours.
The mark [1] stands for this setting: thermodynamic from solid, FaSSIF (pH 6.5), read-out: Solubility.
[2] abbreviates: thermodynamic from solid, Water, read-out: Solubility.

In brackets after ≈: the same amount, converted by molar mass. Like-named read-outs stand apart in the source and are kept apart here.

As for `CC(C)(O)[C@@H]1CC[C@@](C)([C@H]2[C@@H](O)C[C@@]3(C)[C@@H]4C[C@H](OC(=O)COCCO)[C@H]5C(C)(C)C(F)(F)CC[C@@]56C[C@@]46CC[C@]23C)O1` [Compound 2-11, (2aR,3R,4S,5aS,5bS,7S,7aR,11aR,12aS)-9,9-difluoro-4-hydroxy-3-((2S,5S)-5-(2-hydroxypropan-2-yl)-2-methyltetrahydrofuran-2-yl)-2a,5a,8,8-tetramethyltetradecahydro-1H,12H-cyclopenta[a]cyclopropa[e]phenanthren-7-yl-2-(2-hydroxyethoxy)acetate], the Solubility came to 1050 µg/mL (≈ 1710 µM) under setting [1] and 550 µg/mL (≈ 898 µM) under setting [2].

Take `CC(C)(O)[C@@H]1CC[C@@](C)([C@H]2[C@@H](O)C[C@@]3(C)[C@@H]4C[C@H](OC(=O)[C@@H](N)Cc5c[nH]cn5)[C@H]5C(C)(C)C(F)(F)CC[C@@]56C[C@@]46CC[C@]23C)O1.O=S(=O)(O)O` [Compound 2-22, (2aR,3R,4S,5aS,5bS,7S,7aR,11aR,12aS)-9,9-difluoro-4-hydroxy-3-((2S,5S)-5-(2-hydroxypropan-2-yl)-2-methyltetrahydrofuran-2-yl)-2a,5a,8,8-tetramethyltetradecahydro-1H,12H-cyclopenta[a]cyclopropa[e]phenanthren-7-yl-L-histidinate Sulfate]: the Solubility reads like this: (FaSSIF (pH 6.5)) 1250 µg/mL; (Water) 700 µg/mL.

Take `CC(C)(O)C1CCC(C)(C2C(O)CC3(C)C4CC(OP(=O)(O)O)C5C(C)(C)C(F)(F)CCC56CC46CCC23C)O1.N` [Compound 3-2, Ammonium (2aR,3R,4S,5aS,5bS,7S,7aR,11aR,12aS)-9,9-difluoro-4-hydroxy-3-((2S,5S)-5-(2-hydroxypropan-2-yl)-2-methyltetrahydrofuran-2-yl)-2a,5a,8,8-tetramethyltetradecahydro-1H,12H-cyclopenta[a]cyclopropa[e]phenanthren-7-yl phosphate]: the Solubility is 22300 µg/mL (FaSSIF (pH 6.5)) and 12600 µg/mL (Water).

With `Br.CC(C)(O)C1CCC(C)(C2C(O)CC3(C)C4CC(OC(=O)COCCOCCOCCOCCOCCN)C5C(C)(C)C(F)(F)CCC56CC46CCC23C)O1` [Compound 2-10, 17-(((2aR,3R,4S,5aS,5bS,7S,7aR,11aR,12aS)-9,9-difluoro-4-hydroxy-3-((2S,5S)-5-(2-hydroxypropan-2-yl)-2-methyltetrahydrofuran-2-yl)-2a,5a,8,8-tetramethyltetradecahydro-1H,12H-cyclopenta[a]cyclopropa[e]phenanthren-7-yl)oxy)-17-oxo-3,6,9,12,15-pentaoxaheptadecan-1-aminium Bromide], the Solubility (FaSSIF (pH 6.5)) was determined as 4390 µg/mL and the Solubility (Water) worked out at 2280 µg/mL.

Consider `CC(C)(O)[C@@H]1CC[C@@](C)([C@H]2[C@@H](O)C[C@@]3(C)[C@@H]4C[C@H](OC(=O)[C@@H](N)CC(=O)O)[C@H]5C(C)(C)C(F)(F)CC[C@@]56C[C@@]46CC[C@]23C)O1` [Compound 2-24, (S)-3-carboxy-1-(((2aR,3R,4S,5aS,5bS,7S,7aR,11aR,12aS)-9,9-difluoro-4-hydroxy-3-((2S,5S)-5-(2-hydroxypropan-2-yl)-2-methyltetrahydrofuran-2-yl)-2a,5a,8,8-tetramethyltetradecahydro-1H,12H-cyclopenta[a]cyclopropa[e]phenanthren-7-yl)oxy)-1-oxopropan-2-aminium 2,2,2-trifluoroacetate], for which the Solubility under setting [1] stood at 5450 µg/mL (≈ 8710 µM) and the Solubility under setting [2] was 1500 µg/mL (≈ 2400 µM).

For the compound `CC(C)(O)[C@@H]1CC[C@@](C)([C@H]2[C@@H](O)C[C@@]3(C)[C@@H]4C[C@H](OC(=O)COCCOCCOCCOCCOCCO)[C@H]5C(C)(C)C(F)(F)CC[C@@]56C[C@@]46CC[C@]23C)O1` [Compound 2-14, (2aR,3R,4S,5aS,5bS,7S,7aR,11aR,12aS)-9,9-difluoro-4-hydroxy-3-((2S,5S)-5-(2-hydroxypropan-2-yl)-2-methyltetrahydrofuran-2-yl)-2a,5a,8,8-tetramethyltetradecahydro-1H,12H-cyclopenta[a]cyclopropa[e]phenanthren-7-yl-17-hydroxy-3,6,9,12,15-pentaoxaheptadecanoate], the Solubility is, setting by setting: under setting [1], 2310 µg/mL (≈ 2930 µM); under setting [2], 1230 µg/mL (≈ 1560 µM).

Turning to `CC(C)(O)[C@@H]1CC[C@@](C)([C@H]2[C@@H](O)C[C@@]3(C)[C@@H]4C[C@H](OP(=O)(O)O)[C@H]5C(C)(C)C(F)(F)CC[C@@]56C[C@@]46CC[C@]23C)O1` [Compound 11, (2aR,3R,4S,5aS,5bS,7S,7aR,11aR,12aS)-9,9-difluoro-4-hydroxy-3-((2S,5S)-5-(2-hydroxypropan-2-yl)-2-methyltetrahydrofuran-2-yl)-2a,5a,8,8-tetramethyltetradecahydro-1H,12H-cyclopenta[a]cyclopropa[e]phenanthren-7-yl dihydrogen phosphate], the Solubility runs as follows: under setting [1], 3200 µg/mL; under setting [2], 790 µg/mL.

As for `CC(C)(O)[C@@H]1CC[C@@](C)([C@H]2[C@@H](O)C[C@@]3(C)[C@@H]4C[C@H](OC(=O)COCCOCCOCCN)[C@H]5C(C)(C)C(F)(F)CC[C@@]56C[C@@]46CC[C@]23C)O1.O=C(O)C(F)(F)F` [Compound 2-8, 2-(2-(2-(2-(((2aR,3R,4S,5aS,5bS,7S,7aR,11aR,12aS)-9,9-difluoro-4-hydroxy-3-((2S,5S)-5-(2-hydroxypropan-2-yl)-2-methyltetrahydrofuran-2-yl)-2a,5a,8,8-tetramethyltetradecahydro-1H,12H-cyclopenta[a]cyclopropa[e]phenanthren-7-yl)oxy)-2-oxoethoxy)ethoxy)ethoxy)ethan-1-aminium Trifluoroacetate], the Solubility was 4020 µg/mL (FaSSIF (pH 6.5)) and 2050 µg/mL (Water).

`CC(NC(=O)C(N)CC(N)=O)C(=O)OC1CC2C3(C)CC(O)C(C4(C)CCC(C(C)(C)O)O4)C3(C)CCC23CC32CCC(F)(F)C(C)(C)C12.Cl` [Compound 2-34, (S)-4-amino-1-(((S)-1-(((2aR,3R,4S,5aS,5bS,7S,7aR,11aR,12aS)-9,9-difluoro-4-hydroxy-3-((2S,5S)-5-(2-hydroxypropan-2-yl)-2-methyltetrahydrofuran-2-yl)-2a,5a,8,8-tetramethyltetradecahydro-1H,12H-cyclopenta[a]cyclopropa[e]phenanthren-7-yl)oxy)-1-oxopropan-2-yl)amino)-1,4-di oxobutan-2-aminium chloride]: the Solubility was found to be 3200 µg/mL (FaSSIF (pH 6.5)) and 1180 µg/mL (Water).

As for `CC(C)(O)[C@@H]1CC[C@@](C)([C@H]2[C@@H](O)C[C@@]3(C)[C@@H]4C[C@H](OC(=O)[C@@H](N)CCCNC(=N)N)[C@H]5C(C)(C)C(F)(F)CC[C@@]56C[C@@]46CC[C@]23C)O1.Cl.Cl` [Compound 2-23, 1-((S)-4-ammonio-5-(((2aR,3R,4S,5aS,5bS,7S,7aR,11aR,12aS)-9,9-difluoro-4-hydroxy-3-((2S,5S)-5-(2-hydroxypropan-2-yl)-2-methyltetrahydrofuran-2-yl)-2a,5a,8,8-tetramethyltetradecahydro-1H,12H-cyclopenta[a]cyclopropa[e]phenanthren-7-yl)oxy)-5-oxopentyl)guanidinium Chloride], the Solubility runs as follows: (FaSSIF (pH 6.5)) 6600 µg/mL; (Water) 2300 µg/mL.
